# In paper PMC9854774, “Monocarbonyl Curcumin Analogues as Potent Inhibitors against Human Glutathione Transferase P1-1” (Antioxidants, 2022):
# “Also recorded” adds a separate entry of the source. Read-outs that look alike come from different tables or passages of the source.
# Columns and labels:
# hGSTP1-1 [1] = biological target: T1, hGSTP1-1 (Homo sapiens, UniProt P09211); assay: hGSTP1-1 enzyme activity/inhibition assay (CDNB-GSH conjugation, 340 nm); assay type: biochemical; conditions: recombinant hGSTP1-1, 25 °C; for Enzyme Inhibition (%) / inhibition at 100 µM: compound at final concentration of 100 μM; for IC50: CDNB/GSH assay, read-out: IC50 against hGSTP1-1
# T1 construct: made in house; host or cells: E. coli BL21 (DE3)
# Procedure: Determination of hGSTP1-1 activity was performed by monitoring the formation of the conjugate between CDNB and GSH and measuring the absorption at λ = 340 nm (ε = 9600 L·mol^−1·cm^−1) at 25 °C for 120 s, as described previously. One unit of enzyme activity is defined as the amount of enzyme that produces 1.0 μmol of product per minute under the assay conditions. Curcuminoids and monocarbonyl curcumin analogues were dissolved in DMSO (100 μΜ) and added to the assay mixture (the volume of DMSO was maintained at 2% v/v final concentration). The mixture was incubated at 25 °C for 1 min, prior to adding the enzyme sample. Initial velocities were determined in triplicates and were corrected for spontaneous reaction rates, when necessary. […] The IC50 values were determined from a graph of the remaining GST activity (%) against inhibitor concentration.
# (§1) The computer program GraphPad Prism version 8 (GraphPad Prism Software, Inc., San Diego, CA, USA) was used for producing kinetic graphs and determining apparent kinetic parameters/constants and IC50 values.
# hGSTP1-1 [2] = biological target: T1, hGSTP1-1; design: method as in PMID 9463521, PMID 17046132; conditions: pH 7.4; presumably covalent binding to Cys-47; cited from earlier work
# hGSTP1-1 [3] = biological target: T1, hGSTP1-1; assay: Circular dichroism study of enzyme conformation; conditions: 5 μΜ inhibitor; 0.1 mg/mL hGSTP1-1, 2.5 mM GSH (± 1 mM CDNB), pH 6.5
# Procedure: CD studies were performed using a JASCO J-715 spectropolarimeter (Jasco Co., Tokyo, Japan) equipped with Peltier temperature controller (Jasco Co., Tokyo, Japan), at 25 °C and a wavelength range of 190–400 nm using a 1-mm-path length quartz cuvette. Each CD spectrum is the average of three scans at 200 nm·min^−1 and a resolution of 0.5 nm. The CD solutions were prepared by mixing the appropriate volumes of stock solutions to give final concentrations of 0.1 mg/mL of hGSTP1-1, 2.5 mM of GSH, 1 mM of CDNB, and 5 μΜ of inhibitor in potassium phosphate buffer (100 mM, pH 6.5) at room temperature, while CD spectra of plain solutions of GSH, CDNB, DM96, and DM62 at the same concentrations were also run as controls (see supporting information). The analysis of the CD data was performed using the OriginPro 9 program and the content of the secondary structure was calculated through the CDNN Circular Dichroism Spectroscopy Deconvolution software.
# hGSTP1-1 [4] = biological target: T1, hGSTP1-1; assay: Kinetic inhibition analysis of hGSTP1-1 (Lineweaver-Burk); assay type: biochemical; conditions: for Experimental Binding Free Energy ΔGexp: calculated from Ki; for Experimental Binding Free Energy ΔG′exp: calculated from Ki΄; for Type of Inhibition: pH 6.5, 25 °C; for Inhibition Constant Ki΄: binding to enzyme-substrate complex; for Ki: binding to free enzyme, read-out: Inhibition Constant Ki
# Procedure: as §1
# Initial velocities (25 °C) for the hGSTP1-1-catalyzed reaction with CDNB as a variable substrate were determined in reaction mixtures (1 mL total volume) containing potassium phosphate buffer (100 mM, pH 6.5), 2.5 mM GSH, and different concentrations of CDNB (typically 14–1000 μM) in the absence and presence of inhibitors (DM96, DM151, DM109, DMC, 0–50 μM). Initial velocities for the hGSTP1-1-catalyzed reaction with GSH as a variable substrate were determined in reaction mixtures (1 mL total volume) (25 °C) containing potassium phosphate buffer (100 mM, pH 6.5), 1 mM CDNB, and different concentrations of GSH (typically 37.5–3750 μΜ) in the absence and presence of inhibitors (DM96, DM151, DM109, Curcumin II, 0–50 μM).
# DU-145 cells = assay: In vitro cytotoxicity, MTT colorimetric assay; assay type: cell-based, human; conditions: read-out: IC50 against DU-145
# Procedure: DU-145 cells were grown in Dulbecco’s modified eagle medium (DMEM) growth medium of pH 7.4, supplemented with 10% fetal bovine serum (FBS), penicillin (100 U·mL^−1), glutamine (2 mM), and streptomycin (100 μg·mL^−1). Cell cultures were maintained in flasks and were grown at 37 °C in a humidified atmosphere of 5% CO2 in air. […] The subcultivation ratio was 1:2 to 1:5.
# Cells were seeded in 96-well plates (8 × 10^3 cells/well in 100 μL culture medium) and grown overnight at 37 °C in a 5% CO2 incubator. Exponentially growing cells were incubated for 48 h with various concentrations ranging between 10^−3–10^−[…] of each derivative, and the final DMSO concentration never exceeded 0.2%. The medium was then removed and replaced with 100 μL of MTT solution (1 mg·mL^−1). After a 4 h incubation, the solution was aspirated, formazan crystals were solubilized in 100 μL of DMSO, and absorbance was recorded at 540 nm on a Tecan well plate reader. The results were expressed as % cell viability = (mean optical density (OD) of treated cells/mean OD of untreated cells) × 100.
# [5] = tested on: native GST extracted from DU-145 cells; assay: Inhibition of native GST activity in DU-145 cell lysate; assay type: biochemical, human; conditions: inhibitor at its IC50 for recombinant hGSTP1-1, 25 °C
# Procedure: DU-145 cells were trypsinized, transferred to a Falcon tube, and centrifuged at 1500× g for 10 min. Subsequently, DMEM was removed and the cell pellet was resuspended in 1 mL of potassium phosphate buffer. The cells were lysed by sonication, the suspension was centrifuged at 13,000× g for 5 min, and the supernatant was collected.
# [6] = variable substrate CDNB, 2.5 mM GSH
# [7] = variable substrate GSH, 1 mM CDNB
# [8] = Homo sapiens, DU-145, 48 h, MTT, 48 h incubation
# T1 sequence (P09211 2-210 limits assumed): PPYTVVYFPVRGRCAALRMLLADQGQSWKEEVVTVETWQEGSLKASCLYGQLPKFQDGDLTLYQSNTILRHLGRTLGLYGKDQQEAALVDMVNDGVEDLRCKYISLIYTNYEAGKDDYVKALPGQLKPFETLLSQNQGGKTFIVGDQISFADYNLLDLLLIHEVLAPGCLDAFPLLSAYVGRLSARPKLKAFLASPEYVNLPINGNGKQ
Compound,inhibition at 100 µM (hGSTP1-1 [1]) [%],Experimental Binding Free Energy ΔGexp (hGSTP1-1 [4]; variable substrate CDNB),Experimental Binding Free Energy ΔGexp (hGSTP1-1 [4]; variable substrate GSH),Ki (hGSTP1-1 [4]; variable substrate CDNB) [µM],Ki (hGSTP1-1 [4]; variable substrate GSH) [µM],IC50 (hGSTP1-1 [1]) [µM],Enzyme Inhibition (%) (hGSTP1-1 [1]; 100 µM),further results
"2,6-bis(3,4-dihydroxybenzylidene)cyclohexanone [DM57]",,,,,,,,Enzyme Inhibition (%) (hGSTP1-1 [1]): 16.75 ± 3.61%
"2,6-dibenzylidenecyclohexanone [DM15]",,,,,,,,Enzyme Inhibition (%) (hGSTP1-1 [1]): 66.23 ± 2.57%
COc1cc(/C=C/C(=O)CC(=O)/C=C/c2ccc(O)c(OC)c2)ccc1O [Curcumin],,,,,,,,Mode of inhibition of hGSTP1-1 (hGSTP1-1 [2]): irreversible inhibitor
"COc1ccc(/C=C2\CCC/C(=C\c3ccc(OC)cc3)C2=O)cc1 [DM46, 2,6-bid(4-methoxybenzylidene)cyclohexanone]",8.5 ± 2.13,,,,,,,
"O=C1C(=Cc2ccc(O)c(O)c2)CCCC1=Cc1ccc(O)c(O)c1 [DM151, 2,6-bis(3,4-dihydroxybenzylidene)cyclohexanone]",,ΔGexp = −7.12 kcal/mol,ΔGexp = −7.43 kcal/mol,9.55,5.79,11.2 ± 1.03,88.18 ± 3.65,"Type of Inhibition (hGSTP1-1 [4]; [6]): Purely non-competitive; Type of Inhibition (hGSTP1-1 [4]; [7]): Purely non-competitive; IC50 (DU-145 cells; [8]): 46.1 ± 3.68 µM; IC50 (DU-145 cells; MTT, 48 h incubation): 44.6 ± 1.08 µM; Enzyme Inhibition (%) [5]: did not show any inhibition at all; also recorded: No inhibition was observed"
"COc1cc(/C=C/C(O)=C/C(=O)/C=C/c2ccc(O)cc2)ccc1O [DMC, Demethoxycurcumin]",,-7.66 kcal/mol,-5.91 kcal/mol,3.99,68,37.7 ± 1.02,94.56 ± 0.25,"Experimental Binding Free Energy ΔG′exp (hGSTP1-1 [4]; variable substrate CDNB): -7.98 kcal/mol; Experimental Binding Free Energy ΔG′exp (hGSTP1-1 [4]; variable substrate GSH): -6.07 kcal/mol; Type of Inhibition (hGSTP1-1 [4]; variable substrate CDNB, 2.5 mM GSH, listed as Curcumin II): Partially mixed; Inhibition Constant Ki΄ (hGSTP1-1 [4]; variable substrate CDNB): 2.36 ± 1.37 μΜ; Type of Inhibition (hGSTP1-1 [4]; variable substrate GSH, 1 mM CDNB, listed as Curcumin II): Partially mixed; Inhibition Constant Ki΄ (hGSTP1-1 [4]; variable substrate GSH): 52.83 ± 12.25 μΜ; IC50 (DU-145 cells; Homo sapiens, DU-145, 48 h): 48.5 ± 1.09 µM"

# The next lines start with results.
inhibition at 100 µM (hGSTP1-1 [1]) [%],Compound,Experimental Binding Free Energy ΔGexp (hGSTP1-1 [4]; variable substrate CDNB),Experimental Binding Free Energy ΔGexp (hGSTP1-1 [4]; variable substrate GSH),Ki (hGSTP1-1 [4]; variable substrate CDNB) [µM],Ki (hGSTP1-1 [4]; variable substrate GSH) [µM],IC50 (hGSTP1-1 [1]) [µM],Enzyme Inhibition (%) (hGSTP1-1 [1]; 100 µM),further results
8.4 ± 0.36,"O=C1/C(=C/c2ccc(F)cc2)CCC/C1=C\c1ccc(F)cc1 [DM62, (2E,6E)-2,6-bis(4-fluorobenzylidene)cyclohexanone]",,,,,,,Effect on CD spectrum / conformation of the enzyme (hGSTP1-1 [3]): does not cause the conformational changes observed with DM96
44.2 ± 3.06,"COc1ccc(/C=C/C(=O)/C=C/c2ccc(OC)c(OC)c2)cc1OC [DM95, (1E,4E)-1,5-bis(3,4-dimethoxyphenyl)penta-1,4-dien-3-one]",,,,,,,
~95,"O=C(C=Cc1ccc(O)cc1)C=Cc1ccc(O)cc1 [DM96, 1,5-bis(4-hydroxyphenyl)penta-1,4-dien-3-one]",-7.71 kcal/mol,-7.71 kcal/mol,3.67,3.69,5.45 ± 1.08,86.99 ± 1.88,Effect on CD spectrum / conformation of the enzyme (hGSTP1-1 [3]): causes a great change in the CD spectrum; Experimental Binding Free Energy ΔG′exp (hGSTP1-1 [4]; variable substrate CDNB): -7.52 kcal/mol; Experimental Binding Free Energy ΔG′exp (hGSTP1-1 [4]; variable substrate GSH): -8.29 kcal/mol; Type of Inhibition (hGSTP1-1 [4]; [6]): mixed-type inhibitor; also recorded: Purely mixed; Inhibition Constant Ki΄ (hGSTP1-1 [4]; variable substrate CDNB): 4.97 ± 2.86 μΜ; Type of Inhibition (hGSTP1-1 [4]; [7]): partially mixed; also recorded: Partial mixed; Inhibition Constant Ki΄ (hGSTP1-1 [4]; variable substrate GSH): 1.45 ± 0.43 μΜ; IC50 (DU-145 cells; [8]): 8.6 ± 1.07 µM
40 ± 1.84,"COc1cc(C=C2CCCC(=Cc3ccc(O)c(OC)c3)C2=O)ccc1O [DM100, 2,6-bis(3-methoxy-4-hydroxy-benzylidene)cyclohexanone]",,,,,,,
~95,"O=C(/C=C/c1ccc(F)cc1)/C=C/c1ccc(F)cc1 [DM109, (1E,4E)-1,5-bis(4-fluorophenyl)penta-1,4-dien-3-one]",ΔGexp = −6.66 kcal/mol,ΔGexp = −5.96 kcal/mol,20.1,35.1,19.5 ± 1.04,79.06 ± 2.54,"Type of Inhibition (hGSTP1-1 [4]; [6]): Purely non-competitive; Type of Inhibition (hGSTP1-1 [4]; [7]): Purely non-competitive; IC50 (DU-145 cells; [8]): 44.6 ± 1.08 µM; IC50 (DU-145 cells; MTT, 48 h incubation): 46.1 ± 3.68 µM"
54.8 ± 0.52,"O=C(/C=C/c1ccc(O)c(O)c1)/C=C/c1ccc(O)c(O)c1 [DM148, (1E,4E)-1,5-bis(3,4-dihydroxyphenyl)penta-1,4-dien-3-one]",,,,,,,
